Experimental data reported in patent US8226943B2, “Antibodies to notch receptors” (OncoMed Pharmaceuticals, Inc., priority 2008, dated 2012).

Columns and labels:
human Notch1 = target: T1, human Notch1 (Homo sapiens, UniProt P46531); assay: FACS binding to transiently transfected HEK-293 cells, human Notch1
T1 construct: expressed in transfected cells; host or cells: HEK-293, transient, co-transfected with GFP
Method: (§1) The ability of the 59R1 IgG2 antibody to cross-react with other Notch receptors was determined by FACS assay using HEK-293 cells transiently transfected with the human Notch1, Notch2, Notch3 or Notch4 expression plasmid and green fluorescent protein (GFP) as a transfection control. GFP positive cells indicated expression of the transgene. The 59R1 IgG2 was added to the cells at 2 μg/ml and detected by PE-conjugated goat anti-human Fc gamma specific (Jackson Immunochemicals). All Notch constructs were full length.
(§2) The binding epitope of 59R5 was determined. As was described in Example 3 for analysis of antibody 59R1, several point mutants were created within full-length Notch1, converting residues within EGF10 to the corresponding amino acids in human Notch 2. Mutants in full-length Notch sequences were generated by QuikChange® mutagenesis (Stratagene) and verified by sequencing. HEK 293 cells were transiently transfected with expression vectors encoding human Notch2, human Notch1, or human Notch1 with residues 382-386 mutated to the corresponding human Notch2 residues. Cells were also co-transfected with a plasmid encoding green fluorescent protein (GFP) to mark those cells that received transfected plasmid. […] 59R1 and 59R5 were detected by PE-conjugated goat anti-human Fc gamma specific antibody (Jackson Immunochemicals, #109-116-170). […]

[1] = target: T2, human Notch1 with residues 382-386 mutated to the corresponding human Notch2 residues (Homo sapiens, UniProt P46531, E383K/N382H/N386L/S385A); assay: FACS binding to mutant human Notch1 carrying Notch2 residues; conditions: HEK 293 transiently transfected
T2 construct: several point mutants were created within full-length Notch1; expressed in transfected cells; host or cells: HEK 293, transient, co-transfected with GFP
Method: A comparison analysis of the EGF 10 regions of human Notch1, Notch2, and Notch4 and the EGF 9 region of human Notch3 (the equivalent of EGF 10 in the other Notch receptors) was performed to determine likely binding sites for 59R1 (FIG. 14A). As a result of the analysis, several point mutants were created within full-length Notch2, converting residues within EGF 10 to the corresponding amino acids in human Notch 1. Also, conversely, point mutations were made in hNotch1 EGF 10 converting residues to the corresponding hN2 residues. Mutants in full-length Notch sequences were generated by QuikChange® mutagenesis (Stratagene) and verified by sequencing. Binding to the mutants was determined by FACS analysis (FIGS. 14B and 14C). 59R1 was detected by PE-conjugated goat anti-human Fc gamma specific antibody (Jackson Immunochemicals, #109-116-170). […] The corresponding residues in hNotch3 are histidine 361, alanine 364, and isoleucine 365.
The binding epitope of 59R5 was determined. As was described in Example 3 for analysis of antibody 59R1, several point mutants were created within full-length Notch1, converting residues within EGF10 to the corresponding amino acids in human Notch 2. […] 59R1 and 59R5 were detected by PE-conjugated goat anti-human Fc gamma specific antibody (Jackson Immunochemicals, #109-116-170). […]

C28 colon tumor cells = assay: C28 colon tumor xenograft growth; type: in vivo, NOD-SCID mice; conditions: for C28 Tumor vol relative to the control group / growth of C28 colon tumors: 15 mg/kg once per week; for growth of C28 colon tumors: preventative mode
Method: C28 colon tumor cells (10,000 cells per mouse) were injected subcutaneously into the flank region of NOD-SCID mice. Tumors were allowed to grow for 24 days until they had reached an average volume of ˜130 mm^3. Animals were randomized into four treatment groups (n=10/group) and treatments were initiated. One group received a control antibody (1B711) at 10 mg/kg twice per week; one group received irintoecan at 7.5 mg/kg once per week plus the control antibody at 10 mg/kg twice per week; one group received 59R1 at 10 mg/kg twice per week, and the fourth group received the combination of 59R1 at 10 mg/kg twice per week and irinotecan at 7.5 mg/kg once per week. Tumor volumes were measured on the indicated days.
In another embodiment, NOD/SCID mice were injected with C28 colon tumor cells. The mice were treated with anti-Notch2/3 antibody 59R1, anti-Notch2/3 antibody 59R5 or control antibody. Antibodies were dosed at 15 mg/kg once per week in a “preventative” mode where dosing was initiated two days after cell injection.
(§3) Tumor volumes and p values for each experiment are shown relative to the control group. The PE13, C28 and Colo205 studies were carried out as described in Example 14. PN8 studies were carried out as described above. For the PN8 experiment, the control is gemcitabine alone and values for 59R1 and 59R5 are the combinations with gemcitabine. Antibodies were dosed once per week at 15 mg/kg for all experiments.

[2] = system: PN8 pancreatic tumor cells; assay: PN8 pancreatic tumor xenograft growth; type: in vivo, NOD/SCID mice; conditions: for PN8 Tumor vol relative to the control group: combination with gemcitabine, control is gemcitabine alone, antibody 15 mg/kg once per week
Method: The 59R1 IgG2 antibody was also tested in vivo in the breast tumor xenograft lines OMP-B34, OMP-B39, OMP-B44, PE13, and UM-T1, the pancreas tumor xenograft line OMP-PN8, and the colon tumor xenograft line OMP-C8. These tumor xenograft lines were established by adhering to procedures described in Al-Hajj et al., 2003, Proc. Natl. Acad. Sci. USA, 100:3983-3988. Female NOD/SCID immuno-compromised mice 7-10 weeks old were used for the establishment of the breast tumor xenografts and male NOD/SCID mice were used for the OMP-Pn8 and OMP-C8 tumor-models (Harlan, Indianapolis, Ind.). The 59R1 IgG2 antibody was also tested in vivo in a Colo-205 colon tumor xenograft model. Female immunodeficient bg/nu XID mice on a Swiss CD-1 background were used for the Colo-205 xenograft tumor model. In case of the breast cancer models, slow-releasing estrogen pellets (0.36 mg) had to be implanted. Mice were subcutaneously injected on the right flank with 50,000 (OMP-B34, OMP-B39, OMP-B44, PE13, and UM-T1) or 1×10^7 (Colo-205) viable cells, respectively, in a mixture of PBS (without magnesium or calcium) and Matrigel at a 1:1 ratio. The injected total volume per mouse was 200 μl with 50% being Matrigel. Once the tumor had reached a size between 65-200 mm^3, the mice were randomized. Antibodies were administered weekly and tumors measured twice weekly. LZ1 (a human antibody that recognizes lyzozyme) or 1B711 (a murine IgG1 antibody that recognizes the hapten trinitrophenol) was used as a control antibody for treatment of each tumor type. Tumor volume was calculated as described Al-Hajj et al. (2003). Data are expressed as the mean and the mean±S.E.M. Group means were compared using Student's two-tailed, unpaired t-test. […] All statistical analysis was performed using Microsoft EXCEL and Graph Pad PRISM.
In one embodiment, NOD/SCID mice were injected with PN8 pancreatic tumor cells. The tumors were allowed to grow for approximately 33 days until they had reached an average tumor volume of 150 mm^3. The mice were treated with gemcitabine at 20 mg/kg once per week for four weeks in combination with control antibody, anti-Notch2/3 antibody 59R1, or anti-Notch2/3 antibody 59R5.
as §3

human Notch2 = human Notch2 (Homo sapiens, UniProt Q04721); assay: FACS binding to transiently transfected HEK-293 cells, human Notch2; parameters: expressed in transfected cells; host or cells: HEK-293, stably transfected
Method: as §1, §2

T1 sequence (P46531 19-2555): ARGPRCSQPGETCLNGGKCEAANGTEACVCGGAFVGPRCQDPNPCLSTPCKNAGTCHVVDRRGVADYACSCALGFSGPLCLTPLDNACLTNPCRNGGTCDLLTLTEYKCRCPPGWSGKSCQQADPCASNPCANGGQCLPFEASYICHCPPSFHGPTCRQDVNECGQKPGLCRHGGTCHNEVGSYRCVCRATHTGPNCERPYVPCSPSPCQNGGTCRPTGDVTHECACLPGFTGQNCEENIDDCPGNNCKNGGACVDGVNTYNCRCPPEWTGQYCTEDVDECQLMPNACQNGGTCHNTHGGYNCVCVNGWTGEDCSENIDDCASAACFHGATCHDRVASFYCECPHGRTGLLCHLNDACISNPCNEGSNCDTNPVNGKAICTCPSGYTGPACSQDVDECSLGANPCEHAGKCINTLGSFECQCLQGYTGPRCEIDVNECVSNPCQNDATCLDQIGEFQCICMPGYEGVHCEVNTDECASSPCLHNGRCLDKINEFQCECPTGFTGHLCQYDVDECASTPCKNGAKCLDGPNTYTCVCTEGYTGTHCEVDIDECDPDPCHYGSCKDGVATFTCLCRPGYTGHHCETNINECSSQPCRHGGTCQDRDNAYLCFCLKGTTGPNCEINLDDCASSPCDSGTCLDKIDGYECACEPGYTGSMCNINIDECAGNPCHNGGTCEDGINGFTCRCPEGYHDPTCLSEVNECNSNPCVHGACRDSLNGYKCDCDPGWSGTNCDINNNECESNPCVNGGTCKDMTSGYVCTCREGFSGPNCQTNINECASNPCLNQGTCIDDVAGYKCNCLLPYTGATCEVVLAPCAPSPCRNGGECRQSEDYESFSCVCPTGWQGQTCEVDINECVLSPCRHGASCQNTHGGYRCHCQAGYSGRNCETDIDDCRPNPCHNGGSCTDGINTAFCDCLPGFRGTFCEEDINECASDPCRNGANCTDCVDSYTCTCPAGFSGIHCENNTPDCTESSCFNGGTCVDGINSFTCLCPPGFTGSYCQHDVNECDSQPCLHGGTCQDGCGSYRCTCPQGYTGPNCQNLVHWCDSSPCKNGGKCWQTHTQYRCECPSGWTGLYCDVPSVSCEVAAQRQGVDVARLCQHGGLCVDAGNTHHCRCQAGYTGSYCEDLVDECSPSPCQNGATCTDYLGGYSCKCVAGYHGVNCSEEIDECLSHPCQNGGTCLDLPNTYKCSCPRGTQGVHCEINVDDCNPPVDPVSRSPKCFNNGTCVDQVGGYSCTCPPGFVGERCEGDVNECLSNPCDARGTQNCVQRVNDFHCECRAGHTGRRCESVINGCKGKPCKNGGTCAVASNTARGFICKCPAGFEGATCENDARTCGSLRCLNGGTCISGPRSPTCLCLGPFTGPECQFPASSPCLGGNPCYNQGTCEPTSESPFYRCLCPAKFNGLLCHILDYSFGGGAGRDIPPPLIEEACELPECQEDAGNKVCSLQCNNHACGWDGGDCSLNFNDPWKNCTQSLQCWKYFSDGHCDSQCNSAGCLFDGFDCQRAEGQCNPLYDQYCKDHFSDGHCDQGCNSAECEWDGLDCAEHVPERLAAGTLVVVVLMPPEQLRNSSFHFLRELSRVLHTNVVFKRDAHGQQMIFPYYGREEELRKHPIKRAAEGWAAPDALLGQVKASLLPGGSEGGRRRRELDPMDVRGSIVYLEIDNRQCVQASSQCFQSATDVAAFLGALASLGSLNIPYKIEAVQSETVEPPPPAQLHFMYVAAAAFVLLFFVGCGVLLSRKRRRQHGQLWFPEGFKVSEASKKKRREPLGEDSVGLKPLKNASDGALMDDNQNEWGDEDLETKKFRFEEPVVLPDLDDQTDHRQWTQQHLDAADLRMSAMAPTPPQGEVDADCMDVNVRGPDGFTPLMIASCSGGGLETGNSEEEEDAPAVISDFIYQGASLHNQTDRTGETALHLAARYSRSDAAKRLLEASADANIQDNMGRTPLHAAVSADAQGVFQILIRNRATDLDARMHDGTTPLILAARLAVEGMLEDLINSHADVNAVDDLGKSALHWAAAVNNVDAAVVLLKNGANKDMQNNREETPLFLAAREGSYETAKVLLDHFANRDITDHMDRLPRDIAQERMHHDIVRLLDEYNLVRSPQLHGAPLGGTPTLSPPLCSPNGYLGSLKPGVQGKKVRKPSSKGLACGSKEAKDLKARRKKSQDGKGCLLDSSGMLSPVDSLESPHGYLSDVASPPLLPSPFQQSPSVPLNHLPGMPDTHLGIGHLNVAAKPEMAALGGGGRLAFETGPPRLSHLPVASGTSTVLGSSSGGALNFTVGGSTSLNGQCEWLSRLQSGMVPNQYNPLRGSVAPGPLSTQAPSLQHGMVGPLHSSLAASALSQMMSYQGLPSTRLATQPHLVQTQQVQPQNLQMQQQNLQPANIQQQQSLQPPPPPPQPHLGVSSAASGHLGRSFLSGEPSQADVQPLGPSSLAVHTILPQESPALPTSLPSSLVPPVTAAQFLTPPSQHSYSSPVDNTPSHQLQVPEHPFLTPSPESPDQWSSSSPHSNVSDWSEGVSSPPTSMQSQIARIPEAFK
Chain of human Notch2 (Q04721 26-2471): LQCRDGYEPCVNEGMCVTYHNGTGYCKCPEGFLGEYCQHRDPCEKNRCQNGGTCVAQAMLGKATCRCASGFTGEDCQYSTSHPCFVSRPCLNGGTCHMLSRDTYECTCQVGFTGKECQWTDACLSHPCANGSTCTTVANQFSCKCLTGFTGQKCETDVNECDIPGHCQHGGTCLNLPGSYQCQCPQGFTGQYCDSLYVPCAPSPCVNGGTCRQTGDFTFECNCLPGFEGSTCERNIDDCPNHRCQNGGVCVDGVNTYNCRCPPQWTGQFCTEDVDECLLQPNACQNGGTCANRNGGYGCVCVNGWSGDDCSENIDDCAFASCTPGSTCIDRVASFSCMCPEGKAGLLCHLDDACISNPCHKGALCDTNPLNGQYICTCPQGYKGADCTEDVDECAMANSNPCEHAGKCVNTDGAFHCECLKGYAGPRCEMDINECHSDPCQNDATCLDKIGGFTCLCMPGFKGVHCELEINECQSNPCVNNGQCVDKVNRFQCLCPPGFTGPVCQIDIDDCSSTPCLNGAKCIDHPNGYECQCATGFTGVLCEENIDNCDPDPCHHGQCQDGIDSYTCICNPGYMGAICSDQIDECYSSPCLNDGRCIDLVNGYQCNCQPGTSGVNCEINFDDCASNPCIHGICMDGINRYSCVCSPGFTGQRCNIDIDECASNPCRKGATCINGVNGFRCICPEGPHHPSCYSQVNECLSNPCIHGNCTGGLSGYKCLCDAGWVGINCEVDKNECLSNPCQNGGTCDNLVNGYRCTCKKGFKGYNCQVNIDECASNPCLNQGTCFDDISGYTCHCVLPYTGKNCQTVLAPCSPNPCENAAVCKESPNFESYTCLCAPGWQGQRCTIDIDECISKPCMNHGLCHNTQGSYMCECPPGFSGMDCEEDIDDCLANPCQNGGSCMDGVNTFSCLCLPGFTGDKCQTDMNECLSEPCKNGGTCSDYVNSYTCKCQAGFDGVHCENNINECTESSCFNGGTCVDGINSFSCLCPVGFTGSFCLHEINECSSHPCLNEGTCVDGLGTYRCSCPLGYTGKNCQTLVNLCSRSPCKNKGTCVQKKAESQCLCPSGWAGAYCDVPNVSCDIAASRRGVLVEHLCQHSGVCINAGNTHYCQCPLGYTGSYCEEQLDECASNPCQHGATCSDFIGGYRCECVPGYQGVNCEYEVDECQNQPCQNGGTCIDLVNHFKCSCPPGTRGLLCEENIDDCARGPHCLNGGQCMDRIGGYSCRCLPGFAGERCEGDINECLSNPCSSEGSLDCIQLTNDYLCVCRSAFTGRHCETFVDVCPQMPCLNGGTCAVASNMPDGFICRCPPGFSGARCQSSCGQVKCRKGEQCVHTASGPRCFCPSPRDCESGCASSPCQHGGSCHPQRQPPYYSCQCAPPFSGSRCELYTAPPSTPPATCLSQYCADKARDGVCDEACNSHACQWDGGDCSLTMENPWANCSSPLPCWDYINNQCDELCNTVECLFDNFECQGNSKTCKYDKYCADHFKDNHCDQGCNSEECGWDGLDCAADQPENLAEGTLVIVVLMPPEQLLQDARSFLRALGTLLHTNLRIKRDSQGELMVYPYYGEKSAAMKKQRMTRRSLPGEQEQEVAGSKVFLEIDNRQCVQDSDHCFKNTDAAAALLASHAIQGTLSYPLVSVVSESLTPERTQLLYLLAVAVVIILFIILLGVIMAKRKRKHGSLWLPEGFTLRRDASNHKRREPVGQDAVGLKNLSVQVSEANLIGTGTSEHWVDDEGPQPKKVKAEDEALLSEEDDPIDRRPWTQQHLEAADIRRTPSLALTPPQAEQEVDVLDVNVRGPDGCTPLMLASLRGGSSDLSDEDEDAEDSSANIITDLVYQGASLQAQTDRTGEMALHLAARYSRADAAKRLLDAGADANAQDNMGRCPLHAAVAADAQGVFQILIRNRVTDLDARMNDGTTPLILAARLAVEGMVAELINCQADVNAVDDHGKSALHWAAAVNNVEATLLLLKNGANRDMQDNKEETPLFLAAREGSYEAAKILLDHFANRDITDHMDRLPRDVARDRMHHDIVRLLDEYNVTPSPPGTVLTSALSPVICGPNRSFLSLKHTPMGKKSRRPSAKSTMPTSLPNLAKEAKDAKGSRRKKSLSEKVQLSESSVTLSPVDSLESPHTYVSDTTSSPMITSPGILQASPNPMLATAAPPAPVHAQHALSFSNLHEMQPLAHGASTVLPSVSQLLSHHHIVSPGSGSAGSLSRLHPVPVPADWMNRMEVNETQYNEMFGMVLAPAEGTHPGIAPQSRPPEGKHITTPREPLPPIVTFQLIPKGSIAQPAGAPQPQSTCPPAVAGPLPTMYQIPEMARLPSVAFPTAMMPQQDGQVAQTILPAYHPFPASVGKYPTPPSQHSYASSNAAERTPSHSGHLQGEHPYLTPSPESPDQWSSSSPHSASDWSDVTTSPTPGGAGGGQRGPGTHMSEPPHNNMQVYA
T2 sequence (P46531 19-2555 N382H/E383K/S385A/N386L): as the sequence (P46531 19-2555) above, with N364H, E365K, S367A, N368L counted along it

Substance	binding to full-length human Notch1 (FACS) (human Notch1)	FACS binding to mutant hNotch1 with EGF 10 residues mutated to hNotch2 residues 385-389 [1]	C28 Tumor vol relative to the control group (C28 colon tumor cells)	growth of C28 colon tumors (C28 colon tumor cells)	C28 tumor growth, combination of 59R1 and irinotecan relative to the irinotecan group (C28 colon tumor cells; 59R1 10 mg/kg twice per week and irinotecan 7.5 mg/kg once per week)	C28 tumor growth, 59R1 alone relative to the control antibody group (C28 colon tumor cells; established tumors, 10 mg/kg twice per week)	PN8 Tumor vol relative to the control group [2]	PN8 pancreatic tumor growth relative to control antibody ([2]; established tumors, 15 mg/kg once a week)	binding to full-length human Notch2 (FACS) (human Notch2)	PN8 tumor growth, antibody in combination with gemcitabine ([2]; gemcitabine 20 mg/kg once per week for four weeks)
59R1: human IgG2 antibody binding Notch2 and Notch3; heavy and light chain SEQ ID NO:16 and 18; ATCC PTA-9547	does not bind significantly	does bind	0.29	inhibited	inhibited	inhibited	0.27	inhibit pancreatic tumor growth	specifically binds	–
59R5: human antibody that specifically binds human Notch 2 and human Notch 3; heavy and light chain SEQ ID NO:49 and 18; ATCC PTA-10170	did not bind	able to bind	0.38	inhibited	–	–	0.11	–	bound	inhibited tumor growth at a similar level as antibody 59R1
